# Measurements reported in PubChem BioAssay AID2060620 (Molecular Pharmacology Branch, DTP, NCI, 2025).
# Tested on: 328373-195-R-J1-PDC complex spheroids, viability % test/control
# Assay: Anticancer human tumor 328373-195-R-J1-PDC patient-derived head and neck squamous carcinoma cell line growth inhibition [CLK]
# Settings: for IC50: curve of first compound; for viability, T/C: stronger effect = lower value
# Summary of the method: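 Multi-cell-type spheroids combined patient-derived tumor cells with HUVEC endothelial cells and human mesenchymal stem cells. Paired agents were dosed in half-log steps down from about clinical Cmax, or from 10 microM where Cmax was unknown.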
# [1] = second compound 0.0316 µM, first compound 0.0316 µM
# [2] = second compound 0.0316 µM, first compound 0.1 µM
# [3] = second compound 0.0316 µM, first compound 0.316 µM
# [4] = second compound 0.0316 µM, first compound 1 µM
# [5] = second compound 0.0316 µM, first compound 3.16 µM
# [6] = second compound 0.0316 µM, first compound 10 µM
# [7] = second compound 0.1 µM, first compound 0.0316 µM
# [8] = second compound 0.1 µM, first compound 0.1 µM
# [9] = second compound 0.1 µM, first compound 0.316 µM
# [10] = second compound 0.1 µM, first compound 1 µM
# [11] = second compound 0.1 µM, first compound 3.16 µM
# [12] = second compound 0.1 µM, first compound 10 µM
# [13] = second compound 0.316 µM, first compound 0.0316 µM
# [14] = second compound 0.316 µM, first compound 0.1 µM
# [15] = second compound 0.316 µM, first compound 0.316 µM
# [16] = second compound 0.316 µM, first compound 1 µM
# [17] = second compound 0.316 µM, first compound 3.16 µM
# [18] = second compound 0.316 µM, first compound 10 µM
# [19] = second compound 1 µM, first compound 0.0316 µM
# [20] = second compound 1 µM, first compound 0.1 µM
# [21] = second compound 1 µM, first compound 0.316 µM
# [22] = second compound 1 µM, first compound 1 µM
# [23] = second compound 1 µM, first compound 3.16 µM
# [24] = second compound 1 µM, first compound 10 µM
# [25] = second compound 3.16 µM, first compound 0.0316 µM
# [26] = second compound 3.16 µM, first compound 0.1 µM
# [27] = second compound 3.16 µM, first compound 0.316 µM
# [28] = second compound 3.16 µM, first compound 1 µM
# [29] = second compound 3.16 µM, first compound 3.16 µM
# [30] = second compound 3.16 µM, first compound 10 µM
# [31] = second compound 10 µM, first compound 0.0316 µM
# [32] = second compound 10 µM, first compound 0.1 µM
# [33] = second compound 10 µM, first compound 0.316 µM
# [34] = second compound 10 µM, first compound 1 µM
# [35] = second compound 10 µM, first compound 3.16 µM
# [36] = second compound 10 µM, first compound 10 µM
# 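Further: spheroids exposed to the agents for 7 days.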
structure (smiles),measurement,setting,value
COc1ccc([C@@H](O)c2cc(-c3ncnc4cc(N5CCOCC5)ccc34)c(F)cc2Cl)nn1 + CN1CCN(c2cc(C(=O)Nc3cc4cc(-c5cnn(C)c5)ccc4cn3)ccn2)CC1,IC50,second compound 0.0316 µM,> 10 µM
same,IC50,second compound 0.1 µM,8.16 µM
same,IC50,second compound 0.316 µM,< 0.0316 µM
same,IC50,second compound 1 µM,< 0.0316 µM
same,IC50,second compound 3.16 µM,< 0.0316 µM
same,IC50,second compound 10 µM,< 0.0316 µM
same,"viability, T/C",[1],91.6%
same,"viability, T/C",[2],103%
same,"viability, T/C",[3],91.1%
same,"viability, T/C",[4],96.7%
same,"viability, T/C",[5],71.7%
same,"viability, T/C",[6],51.5%
same,"viability, T/C",[7],73.2%
same,"viability, T/C",[8],87.5%
same,"viability, T/C",[9],73%
same,"viability, T/C",[10],96.7%
same,"viability, T/C",[11],71.5%
same,"viability, T/C",[12],45.4%
same,"viability, T/C",[13],21%
same,"viability, T/C",[14],25.2%
same,"viability, T/C",[15],20.6%
same,"viability, T/C",[16],17.7%
same,"viability, T/C",[17],21.5%
same,"viability, T/C",[18],22.5%
same,"viability, T/C",[19],0.11%
same,"viability, T/C",[20],2.93%
same,"viability, T/C",[21],2.16%
same,"viability, T/C",[22],2.41%
same,"viability, T/C",[23],1.4%
same,"viability, T/C",[24],2.54%
same,"viability, T/C",[25],2.66%
same,"viability, T/C",[26],0.1%
same,"viability, T/C",[27],0.14%
same,"viability, T/C",[28],0.11%
same,"viability, T/C",[29],3.57%
same,"viability, T/C",[30],2.6%
same,"viability, T/C",[31],1.28%
same,"viability, T/C",[32],1.19%
same,"viability, T/C",[33],0.19%
same,"viability, T/C",[34],0.13%
same,"viability, T/C",[35],0.17%
same,"viability, T/C",[36],1.61%
COc1cccc2c1C(=O)c1c(O)c3c(c(O)c1C2=O)CC(O)(C(=O)CO)CC3OC1CC(N)C(O)C(C)O1 (stereo not drawn) + CN1CCN(c2cc(C(=O)Nc3cc4cc(-c5cnn(C)c5)ccc4cn3)ccn2)CC1,IC50,second compound 0.0316 µM,< 0.0316 µM
same,IC50,second compound 0.1 µM,< 0.0316 µM
same,IC50,second compound 0.316 µM,< 0.0316 µM
same,IC50,second compound 1 µM,< 0.0316 µM
same,IC50,second compound 3.16 µM,< 0.0316 µM
same,IC50,second compound 10 µM,< 0.0316 µM
same,"viability, T/C",[1],13.4%
same,"viability, T/C",[2],8.66%
same,"viability, T/C",[3],2.1%
same,"viability, T/C",[4],0.22%
same,"viability, T/C",[5],2.55%
same,"viability, T/C",[6],1.06%
same,"viability, T/C",[7],14.7%
same,"viability, T/C",[8],5.57%
same,"viability, T/C",[9],0.44%
same,"viability, T/C",[10],0.19%
same,"viability, T/C",[11],0.12%
same,"viability, T/C",[12],1.87%
same,"viability, T/C",[13],13.2%
same,"viability, T/C",[14],2.4%
same,"viability, T/C",[15],3.38%
same,"viability, T/C",[16],1.11%
same,"viability, T/C",[17],0.1%
same,"viability, T/C",[18],2%
same,"viability, T/C",[19],1.05%
same,"viability, T/C",[20],2.51%
same,"viability, T/C",[21],4.63%
same,"viability, T/C",[22],0.09%
same,"viability, T/C",[23],1.51%
same,"viability, T/C",[24],0.08%
same,"viability, T/C",[25],0.07%
same,"viability, T/C",[26],4.11%
same,"viability, T/C",[27],0.93%
same,"viability, T/C",[28],0.07%
same,"viability, T/C",[29],1.76%
same,"viability, T/C",[30],0.11%
same,"viability, T/C",[31],0.1%
same,"viability, T/C",[32],0.75%
same,"viability, T/C",[33],0.41%
same,"viability, T/C",[34],0.11%
same,"viability, T/C",[35],2.76%
same,"viability, T/C",[36],0.61%
CCCS(=O)(=O)Nc1ccc(F)c(C(=O)c2c[nH]c3ncc(-c4ccc(Cl)cc4)cc23)c1F + CNC(=O)c1ccc(Nc2nc(OC3CCCC3)c3c(-c4ccc5nc(C)oc5c4)c[nH]c3n2)c(OC)c1,IC50,second compound 0.0316 µM,> 10 µM
same,IC50,second compound 0.1 µM,< 0.0316 µM
same,IC50,second compound 0.316 µM,< 0.0316 µM
same,IC50,second compound 1 µM,< 0.0316 µM
same,IC50,second compound 3.16 µM,< 0.0316 µM
same,IC50,second compound 10 µM,< 0.0316 µM
same,"viability, T/C",[1],61.7%
same,"viability, T/C",[2],59.5%
same,"viability, T/C",[3],62.4%
same,"viability, T/C",[4],66.1%
same,"viability, T/C",[5],56.8%
same,"viability, T/C",[6],43.3%
same,"viability, T/C",[7],11.7%
same,"viability, T/C",[8],10.9%
same,"viability, T/C",[9],12%
same,"viability, T/C",[10],15.7%
same,"viability, T/C",[11],13.9%
same,"viability, T/C",[12],15.6%
same,"viability, T/C",[13],10.2%
same,"viability, T/C",[14],11.3%
same,"viability, T/C",[15],11%
same,"viability, T/C",[16],12.2%
same,"viability, T/C",[17],10.6%
same,"viability, T/C",[18],13.5%
same,"viability, T/C",[19],10.9%
same,"viability, T/C",[20],10.5%
same,"viability, T/C",[21],11.3%
same,"viability, T/C",[22],10.7%
same,"viability, T/C",[23],11.1%
same,"viability, T/C",[24],15.2%
same,"viability, T/C",[25],10.8%
same,"viability, T/C",[26],11.3%
same,"viability, T/C",[27],10.3%
same,"viability, T/C",[28],11.4%
same,"viability, T/C",[29],12.7%
same,"viability, T/C",[30],15.8%
same,"viability, T/C",[31],13.8%
same,"viability, T/C",[32],11.1%
same,"viability, T/C",[33],11.2%
same,"viability, T/C",[34],14.1%
same,"viability, T/C",[35],16.6%
same,"viability, T/C",[36],16.4%
COC1C=CCC(C)C(C)S(=O)(=O)NC(=O)c2ccc3c(c2)N(CC2CCC21)CC1(CCCc2cc(Cl)ccc21)CO3 (stereo not drawn) + CNC(=O)c1ccc(Nc2nc(OC3CCCC3)c3c(-c4ccc5nc(C)oc5c4)c[nH]c3n2)c(OC)c1,IC50,second compound 0.0316 µM,4.28 µM
same,IC50,second compound 0.1 µM,< 0.0316 µM
same,IC50,second compound 0.316 µM,< 0.0316 µM
same,IC50,second compound 1 µM,< 0.0316 µM
same,IC50,second compound 3.16 µM,< 0.0316 µM
same,IC50,second compound 10 µM,< 0.0316 µM
same,"viability, T/C",[1],56.2%
same,"viability, T/C",[2],70.6%
same,"viability, T/C",[3],81.3%
same,"viability, T/C",[4],83%
same,"viability, T/C",[5],66.2%
same,"viability, T/C",[6],4.89%
same,"viability, T/C",[7],13%
same,"viability, T/C",[8],13.1%
same,"viability, T/C",[9],12.5%
same,"viability, T/C",[10],15.2%
same,"viability, T/C",[11],9.14%
same,"viability, T/C",[12],2.12%
same,"viability, T/C",[13],12.3%
same,"viability, T/C",[14],11.6%
same,"viability, T/C",[15],11.9%
same,"viability, T/C",[16],8.54%
same,"viability, T/C",[17],6.49%
same,"viability, T/C",[18],5.35%
same,"viability, T/C",[19],12.7%
same,"viability, T/C",[20],11.2%
same,"viability, T/C",[21],9.61%
same,"viability, T/C",[22],8.8%
same,"viability, T/C",[23],6.45%
same,"viability, T/C",[24],5.97%
same,"viability, T/C",[25],11.9%
same,"viability, T/C",[26],12.1%
same,"viability, T/C",[27],10.3%
same,"viability, T/C",[28],7.26%
same,"viability, T/C",[29],6.87%
same,"viability, T/C",[30],11.6%
same,"viability, T/C",[31],13.3%
same,"viability, T/C",[32],13.5%
same,"viability, T/C",[33],10.2%
same,"viability, T/C",[34],8.44%
same,"viability, T/C",[35],8.98%
same,"viability, T/C",[36],9.48%
